A short description of data set [1]: Surface tension, Du Nouy ring. The data set is classed as physicochemical. Particulars: samples at 0.1 mM, room temperature.
Procedure: Samples were prepared at 0.1 mM and assessed using TA.XT2 Texture Analyzer with a 500 g load cell, 5 cm diameter Du Nouy ring and probe speed of 0.2 mm/s at room temperature.
Surface tension of various preparations of synthetic cationic polypeptide(s) in water. Samples were prepared at 0.1 mM and assessed using TA.XT2 Texture Analyzer with a 500 g load cell, 5 cm diameter Du Nouy ring and probe speed of 0.2 mm/s at room temperature.
Surface tension: effect of acetic acid as an additive.
Data set [2] in a line: Kinematic viscosity, glass capillary (Ubbelohde) viscometers, 37° C. The data set is classed as physicochemical. Particulars: 1 and 2 wt %. The protocol:
FIGS. 13A-B. (a) Kinematic viscosity of various synthetic cationic polypeptide(s) in water at 1 wt % and measured using glass capillary viscometers (Ubbelohde viscometers) at a temperature of 37° C. (b) Kinematic viscosity of KrL-100/5.7 (lot BAC02) vs. bovine serum albumin; water is provided for reference.
FIG. 14. Kinematic viscosity of synthetic cationic polypeptide(s) with a lysine-L-leucine block sequence arrangement (KL) in water at 0.5 wt % and measured using glass capillary viscometers (Ubbelohde viscometers) at a temperature of 37° C.
FIG. 13A depicts kinematic viscosity values of various synthetic cationic polypeptide(s) in water at 1 wt % as measured using glass capillary viscometers (Ubbelohde viscometers). […] Albumin is an abundant blood protein and has a molecular weight of approximately 66.5 kDa and total chain length of approximately 583 amino acids units.
The latter has a longer overall chain length, a similar sized hydrophobic block, but a different composition of hydrophobic amino acid units (racemic D,L-leucine vs. enantiopure L-leucine).

These results are taken from US11285189B2, “Compositions and uses of locally-applied antimicrobial synthetic cationic polypeptide(s) with enhanced performance and safety” (priority 2017, dated 2022).

On to `[H]/N=C(\N/C(=N/[H])NCCCCCCNC(=N)NC(=N)Nc1ccc(Cl)cc1)Nc1ccc(Cl)cc1` [chlorhexidine, chlorhexidine gluconate], for which the “effect on surface tension of water” value in data set [1] was “little or no effect”.
In the case of “bovine serum albumin: abundant blood protein, approximately 66.5 kDa, approximately 583 amino acid units”, the “effect on viscosity of aqueous preparations” value in data set [2] is “little, if any effect on viscosity”.
Regarding polyhexamethylene biguanide [PHMB], the “effect on surface tension of water” value in data set [1] is given as “little or no effect”.
